Results from patent US6660910B1, “Selection marker” (Syngenta Mogen B.V., priority 1997, dated 2003).

Columns and labels:
[1] = tested on: cotyledons of Lycopersicon esculentum cv. Money Maker; assay: Transformation of tomato cotyledon explants with selection on cyanamide or kanamycin; format: cell-based
Experimental: Described below is the method used for transformation of cotyledons of Lycopersicon esculentum cv. Money Maker using Agrobacterium tumefaciens. The binary vectors and Agrobacteria strains for this transformation method are identical to those described above. Tomato seedlings were germinated on Germination Medium (GEM) under a 16 h light period (1700 lux) at 24° C. and a 8 h dark period at 21° C. (The contents of the various media can be found in Table 4). Cotyledon explants of 5 to 7 day old seedlings were cut on sterile filter paper soaked with Washing Medium (WAM) and placed on plates containing Cocultivation Medium (COM). The plates, each containing approximately 50 explants, were incubated overnight under the same conditions as described above.
The pre incubated explants were carefully submerged in the Agrobacterium inoculum for 20 minutes.
The explants were then blotted dry on sterile filter paper and incubated for 48 h on the second set of Cocultivation plates. In procession the explants were incubated for 72 h on plates containing Postcultivation Medium (POM) after which the explants were transferred to Shoot inducing Medium (SIM) containing several concentrations of cyanamide or kanamycin. Every three weeks the explants were subcultured on the same medium. After approximately 8-12 weeks shoots were excised and placed on Root inducing Medium (RIM). Shoots that were able to root were then transferred to Root inducing Medium containing 50 mg/l cyanamide or 30 mg/l kanamycin. Simultaneously leaflets of the rooted shoots were tested for expression of the gus gene in a histochemical GUS assay.

[2] = tested on: stem segments of Solanum tuberosum cv. Kardal; assay: Transformation of potato stem segments with selection on cyanamide or kanamycin; format: cell-based
Experimental: Described below is the method used for transformation of stem segments of Solanum tuberosum cv. Kardal using Agrobacterium tumefaciens. Nodal explants from in vitro grown potato plants were used 3 to 8 weeks after transfer. The plants were grown on Multiplication Medium (MUM) under a 16 h light period (1700 lux) at 24° C. and a 8 h dark period at 21° C. (The various media can be found in Table 2). Stem segments of approximately 5 mm were cut on sterile filter paper soaked with Washing Medium (WAM) and collected in a flask containing Washing Medium. For approximately 300 explants the Washing Medium was replaced by Pre cultivation Medium (PRM). The flasks were cultured at 80 rpm at the same culture conditions as described above for approximately 24 h. All binary vectors used in this study contained the nptII gene as a plant selectable marker and the nptIII as bacterial selectable marker. Plasmid pMOG410 additionally harbored a chimeric gus gene containing an intron (Vancanneyt et al. Mol. Gen. Genet., 220, 245-250, 1990). Plasmid pMOG1156 additionally harbored the gus gene and the chimeric cah gene encoding cyanamide hydratase. Plasmid pMOG874 additionally harbored the cah gene. Plasmids were maintained in E.coli and A. tumefaciens under kanamycin selection.
The Agrobacterium strain used in this study harbored a rifampicin selection marker in a C58 chromosomal background. The construction of the helper strain EHA105 is described by Hood et al. (1993), Transg. Res. 2, 208-218.
Agrobacteria were grown overnight in LB medium with antibiotics (rifampicin 20 mg/l, kanamycin 100 mg/l). The overnight culture was diluted to OD600=0.1 and grown to OD600=0.3 in LB without antibiotics in approximately 2 h time. Bacterial suspensions were centrifuged at 1600×g for 15 minutes at room temperature. Bacteria were resuspended in Washing Medium and used for cocultivation experiments. The Pre cultivation Medium was removed from the flasks and replaced by the Agrobacterium suspension. The flasks were incubated for 20 minutes after which the explants were rinsed twice with Washing Medium. The explants were dried on sterile filter paper and incubated for 48 h on plates containing Cocultivation Medium (COM). Then, the explants were transferred to Post cultivation Medium (POM) and incubated for 72 h. The explants were then transferred to Shoot inducing Medium (SIM) containing several concentrations cyanamide or kanamycin. After two weeks the explants were subcultured on the same medium and approximately three weeks later the explants were placed on Shoot elongation Medium (SEM) containing cyanamide or kanamycin as mentioned above. When shoots were large enough to cut they were transferred to Root inducing Medium (RIM). Shoots that were able to root were then transferred to Root inducing Medium containing 50 mg/l cyanamide or 30 mg/l kanamycin. Simultaneously the transgenic nature of the shoots was determined by testing leaflets of the rooted shoots for expression of the gus gene using a histochemical GUS assay. It appeared that for pMOG1156 rooting of transgenic shoots on medium containing cyanamide was completely correlated with expression of the gus gene.

[3] = pMOG410 (gus-nptII), Kanamycin 100 mg/l during regeneration, 30 inoculated explants
[4] = pMOG1156 (gus-nptII-cah), Kanamycin 100 mg/l during regeneration, 30 inoculated explants
[5] = pMOG410 (gus-nptII), Kanamycin 50 mg/l during regeneration, 58 inoculated explants
[6] = pMOG1156 (cah-gus-nptII), Kanamycin 50 mg/l during regeneration, 48 inoculated explants
[7] = pMOG410 (gus-nptII), Cyanamide 20 mg/l during regeneration, 30 inoculated explants
[8] = pMOG410 (gus-nptII), Cyanamide 30 mg/l during regeneration, 30 inoculated explants
[9] = pMOG410 (gus-nptII), Cyanamide 40 mg/l during regeneration, 30 inoculated explants
[10] = pMOG1156 (gus-nptII-cah), Cyanamide 20 mg/l during regeneration, 30 inoculated explants
[11] = pMOG1156 (gus-nptII-cah), Cyanamide 30 mg/l during regeneration, 30 inoculated explants
[12] = pMOG1156 (gus-nptII-cah), Cyanamide 40 mg/l during regeneration, 30 inoculated explants
[13] = pMOG410 (gus-nptII), Cyanamide 20 mg/l during regeneration, 62 inoculated explants
[14] = pMOG410 (gus-nptII), Cyanamide 30 mg/l during regeneration, 62 inoculated explants
[15] = pMOG410 (gus-nptII), Cyanamide 40 mg/l during regeneration, 62 inoculated explants
[16] = pMOG1156 (cah-gus-nptII), Cyanamide 20 mg/l during regeneration, 48 inoculated explants
[17] = pMOG1156 (cah-gus-nptII), Cyanamide 30 mg/l during regeneration, 48 inoculated explants
[18] = pMOG1156 (cah-gus-nptII), Cyanamide 40 mg/l during regeneration, 48 inoculated explants

NC[C@H]1O[C@H](O[C@H]2[C@H](O)[C@@H](O[C@H]3O[C@H](CO)[C@@H](O)[C@H](N)[C@H]3O)[C@H](N)C[C@@H]2N)[C@H](O)[C@@H](O)[C@@H]1O [Kanamycin]
No. of excised shoots [1, 3]: 4 | No. of gus + shoots [1, 3]: 3 | No. of rooting shoots ([1]; pMOG410 (gus-nptII), Kanamycin 100 mg/l during regeneration, 30 inoculated explants, rooting medium 30 mg/l kanamycin): 3 | No. of excised shoots ([1]; pMOG874 (cah-nptII), Kanamycin 100 mg/l during regeneration, 35 inoculated explants): 4 | No. of rooting shoots ([1]; pMOG874 (cah-nptII), Kanamycin 100 mg/l during regeneration, 35 inoculated explants, rooting medium 30 mg/l kanamycin): 1 | No. of excised shoots [1, 4]: 5 | No. of gus + shoots [1, 4]: 4 | No. of rooting shoots ([1]; pMOG1156 (gus-nptII-cah), Kanamycin 100 mg/l during regeneration, 30 inoculated explants, rooting medium 30 mg/l kanamycin): 3 | No. of excised shoots [2, 5]: 24 | No. of gus + shoots [2, 5]: 12 | No. of rooting shoots ([2]; pMOG410 (gus-nptII), Kanamycin 50 mg/l during regeneration, 58 inoculated explants, rooting medium 30 mg/l kanamycin): 13 | No. of excised shoots ([2]; pMOG874 (cah-nptII), Kanamycin 50 mg/l during regeneration, 58 inoculated explants): 34 | No. of rooting shoots ([2]; pMOG874 (cah-nptII), Kanamycin 50 mg/l during regeneration, 58 inoculated explants, rooting medium 30 mg/l kanamycin): 26 | No. of excised shoots [2, 6]: 26 | No. of gus + shoots [2, 6]: 16 | No. of rooting shoots ([2]; pMOG1156 (cah-gus-nptII), Kanamycin 50 mg/l during regeneration, 48 inoculated explants, rooting medium 30 mg/l kanamycin): 16

N#CN [Cyanamide]
No. of excised shoots [1, 7]: 0 | No. of gus + shoots [1, 7]: 0 | No. of rooting shoots ([1]; pMOG410 (gus-nptII), Cyanamide 20 mg/l during regeneration, 30 inoculated explants, rooting medium 50 mg/l cyanamide): 0 | No. of excised shoots [1, 8]: 3 | No. of gus + shoots [1, 8]: 0 | No. of rooting shoots ([1]; pMOG410 (gus-nptII), Cyanamide 30 mg/l during regeneration, 30 inoculated explants, rooting medium 50 mg/l cyanamide): 0 | No. of excised shoots [1, 9]: 0 | No. of gus + shoots [1, 9]: 0 | No. of rooting shoots ([1]; pMOG410 (gus-nptII), Cyanamide 40 mg/l during regeneration, 30 inoculated explants, rooting medium 50 mg/l cyanamide): 0 | No. of excised shoots ([1]; pMOG874 (cah-nptII), Cyanamide 20 mg/l during regeneration, 35 inoculated explants): 2 | No. of rooting shoots ([1]; pMOG874 (cah-nptII), Cyanamide 20 mg/l during regeneration, 35 inoculated explants, rooting medium 50 mg/l cyanamide): 0 | No. of excised shoots ([1]; pMOG874 (cah-nptII), Cyanamide 30 mg/l during regeneration, 35 inoculated explants): 0 | No. of rooting shoots ([1]; pMOG874 (cah-nptII), Cyanamide 30 mg/l during regeneration, 35 inoculated explants, rooting medium 50 mg/l cyanamide): 0 | No. of excised shoots ([1]; pMOG874 (cah-nptII), Cyanamide 40 mg/l during regeneration, 35 inoculated explants): 1 | No. of rooting shoots ([1]; pMOG874 (cah-nptII), Cyanamide 40 mg/l during regeneration, 35 inoculated explants, rooting medium 50 mg/l cyanamide): 1 | No. of excised shoots [1, 10]: 0 | No. of gus + shoots [1, 10]: 0 | No. of rooting shoots ([1]; pMOG1156 (gus-nptII-cah), Cyanamide 20 mg/l during regeneration, 30 inoculated explants, rooting medium 50 mg/l cyanamide): 0 | No. of excised shoots [1, 11]: 5 | No. of gus + shoots [1, 11]: 0 | No. of rooting shoots ([1]; pMOG1156 (gus-nptII-cah), Cyanamide 30 mg/l during regeneration, 30 inoculated explants, rooting medium 50 mg/l cyanamide): 0 | No. of excised shoots [1, 12]: 5 | No. of gus + shoots [1, 12]: 3 | No. of rooting shoots ([1]; pMOG1156 (gus-nptII-cah), Cyanamide 40 mg/l during regeneration, 30 inoculated explants, rooting medium 50 mg/l cyanamide): 3 | No. of excised shoots [2, 13]: 48 | No. of gus + shoots [2, 13]: 0 | No. of rooting shoots ([2]; pMOG410 (gus-nptII), Cyanamide 20 mg/l during regeneration, 62 inoculated explants, rooting medium 50 mg/l cyanamide): 0 | No. of excised shoots [2, 14]: 10 | No. of gus + shoots [2, 14]: 0 | No. of rooting shoots ([2]; pMOG410 (gus-nptII), Cyanamide 30 mg/l during regeneration, 62 inoculated explants, rooting medium 50 mg/l cyanamide): 0 | No. of excised shoots [2, 15]: 0 | No. of gus + shoots [2, 15]: 0 | No. of rooting shoots ([2]; pMOG410 (gus-nptII), Cyanamide 40 mg/l during regeneration, 62 inoculated explants, rooting medium 50 mg/l cyanamide): 0 | No. of excised shoots ([2]; pMOG874 (cah-nptII), Cyanamide 20 mg/l during regeneration, 58 inoculated explants): 81 | No. of rooting shoots ([2]; pMOG874 (cah-nptII), Cyanamide 20 mg/l during regeneration, 58 inoculated explants, rooting medium 50 mg/l cyanamide): 2 | No. of excised shoots ([2]; pMOG874 (cah-nptII), Cyanamide 30 mg/l during regeneration, 58 inoculated explants): 40 | No. of rooting shoots ([2]; pMOG874 (cah-nptII), Cyanamide 30 mg/l during regeneration, 58 inoculated explants, rooting medium 50 mg/l cyanamide): 8 | No. of excised shoots ([2]; pMOG874 (cah-nptII), Cyanamide 40 mg/l during regeneration, 58 inoculated explants): 10 | No. of rooting shoots ([2]; pMOG874 (cah-nptII), Cyanamide 40 mg/l during regeneration, 58 inoculated explants, rooting medium 50 mg/l cyanamide): 1 | No. of excised shoots [2, 16]: 56 | No. of gus + shoots [2, 16]: 6 | No. of rooting shoots ([2]; pMOG1156 (cah-gus-nptII), Cyanamide 20 mg/l during regeneration, 48 inoculated explants, rooting medium 50 mg/l cyanamide): 6 | No. of excised shoots [2, 17]: 50 | No. of gus + shoots [2, 17]: 12 | No. of rooting shoots ([2]; pMOG1156 (cah-gus-nptII), Cyanamide 30 mg/l during regeneration, 48 inoculated explants, rooting medium 50 mg/l cyanamide): 12 | No. of excised shoots [2, 18]: 15 | No. of gus + shoots [2, 18]: 2 | No. of rooting shoots ([2]; pMOG1156 (cah-gus-nptII), Cyanamide 40 mg/l during regeneration, 48 inoculated explants, rooting medium 50 mg/l cyanamide): 2
